These results are taken from patent publication US9611501B2, “Method and device for rapid detection of bacterial antibiotic resistance/susceptibility” (priority 2009, dated 2017).

In brackets after ≈: the same amount, converted by molar mass. Bounds are passed on as bounds.

One assay concerns MRSA (MW2). The assay can be described thus: Oxacillin MIC quoted for the flow cell experiment. It is filed as cell-based. Particulars: Staphylococcus aureus.
Assay [1] relates to MSSA (Sanger 476) and MRSA (MW2) strains. The assay can be described thus: Single-channel flow cell, immobilized cells under shear and lysostaphin stress with oxacillin, Sytox green staining. It is filed as cell-based, Staphylococcus aureus. As to conditions: 10 μg/mL oxacillin, 0.6 ng/mL lysostaphin, ~4200 s^-1 shear rate for 15 mins after 40 min pretreatment with lysostaphin and shear; 0.5 μM Sytox green. As for the experimental part:
The Staphylococcus aureus (MRSA strain MW2 and MSSA strain Sanger 476) were grown to log phase in Mueller-Hinton broth with 2% sodium chloride (MH2) and then immobilized on epoxide slides, which is a non-specific method for immobilizing bacteria and can be used instead of the adhesin mechanism. To immobilize the bacteria, 100 μL of culture was placed on the epoxide slide (Super-epoxy II, Telechem International) and incubated at 37° C. for 45 min in a humid environment. The immobilized cells were briefly rinsed with water and Block-it buffer (Telechem International) to quench any remaining un-reacted epoxide bonds.
On two separate slides, MSSA (Sanger 476) and MRSA (MW2) strains were immobilized. The cells were assembled in channels of ˜300 μm width and stained with 0.5 μM Sytox green in MH2. The immobilized cells were stressed with 0.6 ng/mL lysostaphin, ˜4200 s^−1 shear rate, and 10 μg/mL oxacillin for 15 mins after a 40 min pretreatment with lysostaphin and shear alone. The lysostaphin concentration was chosen to be lower than the MIC (˜1 ng/mL).

The test system of assay [2] is MW2 methicillin resistant cells. The experiment in a line: 4-channel flow cell, Sytox Green fluorescence of immobilized cells. It counts as cell-based, Staphylococcus aureus. As to conditions: oxacillin 50 μg/mL or lysostaphin 0.7 ng/mL alone, flow rate 1 mL/min, 0.5 μM Sytox Green. As for the experimental part:
(§1) This 4-channel arrangement was used to test a single strain of bacteria in the presence or absence of chemical stress (e.g., lysostaphin). The flow rate used in the channels was 1 mL/min and 0.5 μM Sytox Green was used to stain damaged or dying cells.
(§2) In each experiment, bacteria in two channels were exposed to 0.7 ng/mL lysostaphin (lyso) in the presence or absence of the antibiotic oxacillin (oxa; 50 μg/mL). The four experimental groups are as follows: (i) control (no oxa; no lyso), (ii) lyso only; (iii) oxa only, and (iv) lyso and oxa together.

The test system of assay [3] is Sanger 476 methicillin sensitive cells. The assay is described as above. It is filed as cell-based, Staphylococcus aureus. As to conditions: flow rate 1 mL/min, 0.5 μM Sytox Green. As for the experimental part: as §1, §2
A further assay deals with MSSA (Sanger 476). The experiment in a line: Oxacillin MIC quoted for the flow cell experiment. It is filed as cell-based. Particulars: Staphylococcus aureus.
For another assay, the system named is strain Sanger 476. The experiment in a line: Classical microdilution broth MIC of lysostaphin. It is filed as cell-based, Staphylococcus aureus. As to conditions: MHB, 5×10^5 CFU/mL, overnight incubation at 37° C. The text has this:
(§3) A classical microdilution broth method was used to determine the lysostaphin minimum inhibitory concentrations for strains MW2 and Sanger 476 (Jones, R. N., et al. Manual of clinical microbiology, A. Balows, J. W. J. Hausler, and H. J. Shadomy, Editors. 1985, American Society for Microbiology: Washington D.C. p. 972-977). Briefly, logarithmic-phase bacteria were cultivated in Mueller-Hinton cation-adjusted broth (MHB) and adjusted to a concentration of 1×10^6 CFU/mL. Sterile microtiter plates containing 100 μl of lysostaphin diluted in MHB were inoculated with 100 μl of the bacterial suspension to yield 5×10^5 CFU/mL. After overnight incubation at 37° C. overnight, the MIC for both strains was 0.06 μg/mL.

The next assay has as its system strain MW2. The assay can be described thus: Classical microdilution broth MIC of lysostaphin. It counts as cell-based, Staphylococcus aureus. Particulars: MHB, 5×10^5 CFU/mL, overnight incubation at 37° C.
Source text: as §3

The next assay concerns Staphylococcus aureus. The assay can be described thus: Lysostaphin MIC quoted for the flow cell experiment. It is filed as cell-based. Particulars: strain not stated; quoted to justify 0.6 ng/mL lysostaphin.

As to `Cc1onc(-c2ccccc2)c1C(=O)N[C@@H]1C(=O)N2[C@@H]1SC(C)(C)[C@@H]2C(=O)O` [oxacillin], the MIC against MRSA (MW2) was over 16 µg/mL; with MSSA (Sanger 476), 0.5 µg/mL (≈ 1.25 µM). Further, the “cell death, MSSA compared with MRSA” value in assay [1] is “More MSSA cells died during the course of the experiment than MRSA cells”. The “fluorescence compared to control MW2 cells” value in assay [2] is “no substantial increase”. Also, the “time point at which fluorescence was increased” value in assay [3] (oxacillin 50 μg/mL with or without 0.7 ng/mL lysostaphin) is “approximately 20 min”.

Take lysostaphin: the “minimum inhibitory concentration (MIC)” value with strain Sanger 476 and in the assay with strain MW2 was 0.06 µg/mL in each case. Besides, the “fluorescence compared to control MW2 cells” value in assay [2] was “small increase”. The “level of fluorescence compared with the control channel” value in assay [3] (0.7 ng/mL lysostaphin) is on record as “not substantially different”. In addition, the MIC in the assay on Staphylococcus aureus was about 0.001 µg/mL.
